Read-outs that look alike come from different tables or passages of the source.

The text below walks through data of US8609685B2, “SMAC mimetic compounds as apoptosis inducers” (CISI SCRL, priority 2007, dated 2013).

One experiment concerns MDA-MB-231 cells. In words: Standalone cytotoxicity, MTT assay, MDA-MB-231. Format: cell-based. The note with it: Homo sapiens; for IC50: read-out: IC50 (μM ± standard Deviation); for IC80: read-out: IC80 (μM ± standard Deviation). Here is the method:
Reagents for cell culture were purchased from Sigma unless otherwise indicated below. […] A subcultivation ratio of 1:4 was used.
The cellular growth inhibitory effect of our compounds was evaluated using the MTT assay (Sigma). After 96 hours of treatment, 10 μl of MTT reagent solution (5 mg of MTT powder/ml diluted in Phosphate Buffer Salt saline solution) were added in each well and allowed to react for 3 hours in the incubator. After 3 hours cells were solubilized in Lysis Buffer (10% SDS/0.1% HCl in water, 100 μl for each well) for 24 hours at 37° C. Finally, the absorbance was measured at 570 nm using a multiplate reader. Absorbance values were collected and IC50/IC80 values were determined using GraphPad Prism 5 software. The experiments were repeated twice.
MDA-MB-231 cells were seeded in 96-well flat bottom cell culture plates at a density of 5000 cells/well in 100 μl of culture medium and allowed to adhere for 24 hours in the incubator. After 24 hours MDA-MB-231 cells were exposed to the compounds at various concentrations for 96 hours in the incubator (50 nM, 100 nM, 200 nM, 500 nM, 1 μM, 5 μM, 10 μM, 50 μM and 100 μM). Each point was done in triplicate.
After 96 hours of treatment, 10 μl of MTT reagent solution (5 mg of MTT powder/ml diluted in Phosphate Buffer Salt saline solution) were added in each well and allowed to react for 3 hours in the incubator. After 3 hours cells were solubilized in Lysis Buffer (10% SDS/0.1% HCl in water, 100 μl for each well) for 24 hours at 37° C. Finally, the absorbance was measured at 570 nm using a multiplate reader. Absorbance values were collected and IC50/IC80 values were determined using GraphPad Prism 5 software. The experiments were repeated twice.
Background: Tetrazolium assays rely on reduction of a dye to a coloured formazan, in cell work by metabolically active cells.

For experiment [1], the system named is K562 cells. In words: Combination treatment with cytotoxic agents, WST-1 assay, K562. The note with it: Homo sapiens, K562, 72 h, read-out: cell growth/viability, mean percentage normalized to the untreated control.
In experiment [2] the test system is K562 cells. As to the kind of experiment: Standalone cytotoxicity, WST-1 colorimetric assay, K562. Format: cell-based. The note with it: Homo sapiens. As to the method:
(§1) All the cell lines were grown at density of 1×10^5 cells per ml and seeded (100 μl of cell suspension/well) on 96-well microtiter plates with or without escalating doses of SMAC-mimic compounds. Cells were incubated at 37° C. in a 5% CO2 fully humidified atmosphere and examined at 24, 48 and 72 hours for cytotoxicity with the WST-1 colorimetric assay. […] Data are expressed as mean percentage of three replicates normalized to the untreated control.

Experiment [3] deals with HL60 cells. As to the kind of experiment: Standalone cytotoxicity, WST-1 colorimetric assay, HL60. Format: cell-based. The note with it: Homo sapiens, HL-60. Here is the method: as §1
For the next experiment, the system named is ARH77 cell line. As to the kind of experiment: Standalone cytotoxicity, WST-1 colorimetric assay, ARH77. Format: cell-based. The note with it: Homo sapiens, ARH-77. Here is the method: as §1, with “HL60 and K562 human cell lines were cultured in RPMI 1640 culture medium supplemented with 10% FBS while the ARH77 and KMS26 cell lines were cultured in IMDM culture medium supplemented with 10% FBS. All” for “All”

Experiment [4] deals with T1, human XIAP linker-BIR2-BIR3 (Homo sapiens, UniProt P98170).
T1 construct: human XIAP from residue 124 to 356 (linker-BIR2-BIR3); made in house; host or cells: Escherichia coli BL21
In words: Fluorescence polarization competitive binding, displacement of SMAC-1F probe from XIAP linker-BIR2-BIR3-His-tag. The note with it: XIAP linker-BIR2-BIR3, average of three independent measurements. As to the method:
(§2) Data were analyzed using Prism 4.0 software (Graphpad Software).

The target in a further experiment is T2, human XIAP BIR3 domain (Homo sapiens, UniProt P98170).
T2 construct: human XIAP BIR3 domain from residue 241 to 356; made in house; host or cells: Escherichia coli BL21
In words: Fluorescence polarization competitive binding, displacement of FITC-SMAC probe from XIAP BIR3-His-tag. The note with it: XIAP BIR3, average of three independent measurements. As to the method: as §2
For orientation: In fluorescence polarisation assays a small probe gives low polarisation when free and higher when bound to something large.

Another experiment deals with KMS26 cell line. As to the kind of experiment: Standalone cytotoxicity, WST-1 colorimetric assay, KMS26. The note with it: Homo sapiens, KMS-26. It is filed as cell-based. As to the method:
as §1

Experiment [5] has as its system HL60 cells. In words: Combination treatment with cytotoxic agents, WST-1 assay, HL60. It is filed as cell-based. The note with it: Homo sapiens, HL-60, 72 h; read-out: cell growth/viability, mean percentage normalized to the untreated control.
A further experiment deals with XIAP (Homo sapiens, UniProt P98170). The note with it: background statement; cited from earlier work.
Sequence of XIAP (P98170 whole entry): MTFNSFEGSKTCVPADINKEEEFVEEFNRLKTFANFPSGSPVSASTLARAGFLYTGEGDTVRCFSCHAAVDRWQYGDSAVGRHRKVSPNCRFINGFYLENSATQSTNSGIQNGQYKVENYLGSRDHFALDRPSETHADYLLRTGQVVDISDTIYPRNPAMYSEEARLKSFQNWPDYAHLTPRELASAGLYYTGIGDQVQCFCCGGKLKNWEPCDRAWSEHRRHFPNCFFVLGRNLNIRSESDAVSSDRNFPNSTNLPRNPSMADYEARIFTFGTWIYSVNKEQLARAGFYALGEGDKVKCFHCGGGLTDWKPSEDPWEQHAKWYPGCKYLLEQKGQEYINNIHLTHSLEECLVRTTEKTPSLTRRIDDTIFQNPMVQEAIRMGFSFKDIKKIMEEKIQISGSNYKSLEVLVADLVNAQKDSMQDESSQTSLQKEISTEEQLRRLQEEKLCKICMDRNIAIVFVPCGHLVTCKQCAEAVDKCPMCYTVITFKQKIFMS

T2 sequence (P98170 241-356): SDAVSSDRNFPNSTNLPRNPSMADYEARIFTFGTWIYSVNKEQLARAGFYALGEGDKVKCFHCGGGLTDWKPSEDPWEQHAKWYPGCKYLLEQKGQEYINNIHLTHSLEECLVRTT
T1 sequence (P98170 124-356): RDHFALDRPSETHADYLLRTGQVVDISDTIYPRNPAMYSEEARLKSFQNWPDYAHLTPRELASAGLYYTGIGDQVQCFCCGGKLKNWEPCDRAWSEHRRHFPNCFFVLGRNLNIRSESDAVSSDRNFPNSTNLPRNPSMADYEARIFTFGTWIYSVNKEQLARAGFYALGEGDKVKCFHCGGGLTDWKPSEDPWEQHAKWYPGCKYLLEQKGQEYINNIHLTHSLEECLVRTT

`CC[C@H](NC)C(=O)N[C@@H]1C(=O)N2[C@@H](CC[C@@H]1CO)CC[C@H]2C(=O)NC(c1ccccc1)c1ccccc1` [Compound 24g]: in the experiment on MDA-MB-231 cells (MDA-MB-231, 96 h), the IC50 amounted to 0.237 ± 0.003 µM. The IC80 in the experiment on MDA-MB-231 cells (MDA-MB-231, 96 hours, MTT) worked out at 0.87 ± 0.004 µM.
For `CC(=O)O[C@H]1C(=O)[C@@]2(C)[C@H]([C@H](OC(=O)c3ccccc3)[C@]3(O)C[C@H](OC(=O)[C@H](O)[C@@H](NC(=O)c4ccccc4)c4ccccc4)C(C)=C1C3(C)C)[C@]1(OC(C)=O)CO[C@@H]1C[C@@H]2O` [Taxol, taxol, reference compound], the viability at 0.1 µM in the experiment on K562 cells [1] amounted to 69%.
As to `CC[C@H](N)C(=O)N[C@@H]1C(=O)N2[C@@H](CC[C@@H]1CN=[N+]=[N-])CC[C@H]2C(=O)NC(c1ccccc1)c1ccccc1` [Compound 25a], the IC50 in the experiment on K562 cells [2] (K562, 24 hrs) was 4780 nM; in the experiment with K562 cells [2] (K562, 48 hrs) it was 3950 nM; in the experiment on K562 cells [2] (K562, 72 hrs), 2130 nM; in the experiment on HL60 cells [3] (HL60, 24 hrs), above 10000 nM; with HL60 cells [3] (HL60, 48 hrs) it was 3320 nM; in the experiment on HL60 cells [3] (HL60, 72 hrs), 1.8 nM.
With `CC[C@H](N)C(=O)N[C@@H]1C(=O)N2[C@@H](CC[C@@H]1Cn1cc(CO[C@H](C)[C@H](NC(=O)[C@H](C)NC)C(=O)N3CCC[C@H]3Cn3nnnc3Sc3ccccc3)nn1)CC[C@H]2C(=O)NC(c1ccccc1)c1ccccc1` [Compound 44a], the IC50 is above 10000 nM in the experiment with ARH77 cell line (ARH77, 24 hrs); above 10000 nM in the experiment on ARH77 cell line (ARH77, 48 hrs); above 10000 nM in the experiment on ARH77 cell line (ARH77, 72 hrs); 0.168 ± 0.002 µM with MDA-MB-231 cells (MDA-MB-231, 96 hours, MTT). The viability at 0.0001 µM in the experiment on K562 cells [1] came out at 89%. Further, the IC80 in the experiment with MDA-MB-231 cells (MDA-MB-231, 96 hours, MTT) worked out at 0.288 ± 0.003 µM.
Consider `CC[C@H](N)C(=O)N[C@@H]1C(=O)N2C(CC[C@@H]1CNC(=O)CCC#CC#CCCC(=O)NC[C@H]1CC[C@H]3CC[C@@H](C(=O)NC(c4ccccc4)c4ccccc4)N3C(=O)[C@H]1NC(=O)[C@@H](N)CC)CC[C@H]2C(=O)NC(c1ccccc1)c1ccccc1` (some centres unmarked) [Compound 46a], for which, in the experiment on MDA-MB-231 cells (MDA-MB-231, 96 hours, MTT), the IC50 stood at 0.116 ± 0.002 µM and the IC80 was 0.17 ± 0.002 µM.
For the molecule `CC[C@H](N)C(=O)N[C@@H]1C(=O)N2[C@@H](CC[C@@H]1CCN)CC[C@H]2C(=O)NC(c1ccccc1)c1ccccc1` [Compound 38a], the IC50 was 85 nM in experiment [4]; 324 nM on human XIAP BIR3 domain; 12.9 ± 0.3 µM in the experiment on MDA-MB-231 cells (MDA-MB-231, 96 hours, MTT). Besides, in the experiment on MDA-MB-231 cells (MDA-MB-231, 96 hours, MTT), the IC80 was determined as 33.9 ± 0.7 µM.
Regarding `CC[C@H](N)C(=O)N[C@@H]1C(=O)N2[C@@H](CC[C@@H]1CO)CC[C@H]2C(=O)NC(c1ccccc1)c1ccccc1` [Compound 24a], the IC50 in the experiment on ARH77 cell line (ARH77, 24 hrs) was above 10000 nM; in the experiment with ARH77 cell line (ARH77, 48 hrs) it was above 10000 nM; with ARH77 cell line (ARH77, 72 hrs) it was above 10000 nM; in the experiment with K562 cells [2] (K562, 24 hrs) it was above 10000 nM; in the experiment with K562 cells [2] (K562, 48 hrs), above 10000 nM; in the experiment with K562 cells [2] (K562, 72 hrs), above 10000 nM. In addition, the IC50 was above 10000 nM with HL60 cells [3] (HL60, 24 hrs) and above 10000 nM in the experiment on KMS26 cell line (KMS26, 24 hrs). The viability at 0.01 µM in the experiment with HL60 cells [5] turned out to be 110%. The viability at 0.05 µM in the experiment on K562 cells [1] was determined as 90%. Moreover, in the experiment on MDA-MB-231 cells (MDA-MB-231, 96 hours, MTT), the IC80 came out at 3.9 ± 0.07 µM.
For `CC[C@H](N)C(=O)N[C@@H]1C(=O)N2[C@@H](CC[C@@H]1COC(C)=O)CC[C@H]2C(=O)NC(c1ccccc1)c1ccccc1` [Compound 30a], the IC50 in the experiment with K562 cells [2] (K562, 24 hrs) was above 10000 nM; in the experiment on K562 cells [2] (K562, 48 hrs) it was above 10000 nM; with K562 cells [2] (K562, 72 hrs), above 10000 nM; in the experiment with HL60 cells [3] (HL60, 24 hrs) it was above 10000 nM; in the experiment with HL60 cells [3] (HL60, 48 hrs) it was 1790 nM; in the experiment on HL60 cells [3] (HL60, 72 hrs), 623 nM.
Turning to `CC[C@H](NC)C(=O)N[C@@H]1C(=O)N2[C@@H](CC[C@@H]1CCN)CC[C@H]2C(=O)NC(c1ccccc1)c1ccccc1` [Compound 38d], the IC50 in the experiment on MDA-MB-231 cells (MDA-MB-231, 96 h) was 2.3 ± 1.2 µM. Besides, in the experiment with MDA-MB-231 cells (MDA-MB-231, 96 hours, MTT), the IC80 is 14.8 ± 1 µM.
As for `CC[C@H](N)C(=O)N[C@@H]1C(=O)N2[C@@H](CC[C@@H]1CN)CC[C@H]2C(=O)NC(c1ccccc1)c1ccccc1` [Compound 26a], the IC50 in the experiment with ARH77 cell line (ARH77, 24 hrs) is above 10000 nM; in the experiment on ARH77 cell line (ARH77, 48 hrs), above 10000 nM; with ARH77 cell line (ARH77, 72 hrs), above 10000 nM; in the experiment on K562 cells [2] (K562, 24 hrs) it was 593 nM; in the experiment on K562 cells [2] (K562, 48 hrs), 0.06 nM; with K562 cells [2] (K562, 72 hrs), 0.08 nM. The IC50 was above 10000 nM in the experiment on KMS26 cell line (KMS26, 24 hrs); 0.002 nM in the experiment with KMS26 cell line (KMS26, 48 hrs); 62.3 nM in the experiment on KMS26 cell line (KMS26, 72 hrs).

B1: mature Smac protein: mature Smac/DIABLO protein, endogenous inhibitor of XIAP (protein, UniProt Q9NR28 22-239, looked up)
Diablo IAP-binding …: LCVPVVANFKKRCFSELIRPWHKTVTIGFGVTLCAVPIAQKSEPHSLSSEALMRRAVSLVTDSTSTFLSQTTYALIEAITEYTKAVYTLTSLYRQYTSLLGKMNSEEEDEVWQVIIGARAEMTSKHQEYLKLETTWMTAVGLSEMAAEAAYQTGADQASITARNHIQLVKLQVEEVHQLSRKAETKLAEAQIEELRQKTQEEGEERAESEQEAYLRED
In the case of B1, in the experiment with XIAP, the Kd was 420 nM.

Broadly, the IC50 is the point on the concentration scale where inhibition reaches its midpoint. A word on the IC80: it is the concentration needed for an effect of 80%. As a reminder, the Kd is the free concentration of one partner at which half of the binding sites on the other are occupied at equilibrium, for simple one-to-one binding.
